Molecules are shown by their SMILES. pEC50: −log10 of the molar value. Active and inactive are the calls of the source. No cut-off for these calls is given here.

This is an account of results in ChEMBL document CHEMBL1781880, “Total synthesis and evaluation of 22-(3-azidobenzoyloxy)methyl epothilone C for photoaffinity labeling of beta-tubulin” (2009).

The subject of test [1] is MCF7. Description: Cytotoxicity against human MCF7 cells by […] labeling study. To be noted: MCF7, light or radiation study, read-out: ED50 (the source's name). It counts as functional.
Test [2] can be described thus: Cytotoxicity against human NCI/ADR cells by phototoxicity labeling study. It counts as functional. To be noted: NCI/ADR-RES, light or radiation study, read-out: ED50 (the source's name).
A short description of test [3]: Induction of microtubule assembly by photoaffinity labeling study.
The test system of test [4] is MCF7. Description: Ratio of ED50 for epothilone B to ED50 for compound for human MCF7 cells. It counts as functional.
Test [5] is described as follows: Induction of microtubule assembly by photoaffinity labeling study in presence of epothilone B.
Test [6] can be described thus: Ratio of ED50 for epothilone B to ED50 for compound for induction of microtubule assembly by photoaffinity labeling study.
Test [7] can be described thus: Ratio of ED50 for epothilone B to ED50 for compound for human NCI/ADR cells. It counts as functional.

Regarding `C/C(=C\c1csc(C)n1)[C@@H]1C[C@@H]2O[C@]2(C)CCC[C@H](C)[C@H](O)[C@@H](C)C(=O)C(C)(C)[C@@H](O)CC(=O)O1` [PATUPILONE], the pEC50 with MCF7 [1] is 8.82; in test [2], 8.92. The molecule also registered an ED50 in test [3] of 1 µM.

On to `C/C(=C\c1csc(C)n1)[C@@H]1C/C=C\CCC[C@H](C)[C@H](O)[C@@H](C)C(=O)[C@](C)(CCOC(=O)c2cccc(N=[N+]=[N-])c2)[C@@H](O)CC(=O)O1`, for which the pEC50 with MCF7 [1] was 5.92; in test [2] it was 6.00. For the same molecule, the “Ratio ED50” value in the test with MCF7 [4] worked out at 632; in test [6], 5.1; in test [7], 833. For the same molecule, the outcome in test [5] was inactive. The same molecule registered an ED50 in test [3] of 5.1 µM.
